Literature values in patent US20150099751A1, “IN SITU GEL LOADED WITH PHOSPHODIESTERASE TYPE V INHIBITORS NANOEMULSION” (KING ABDULAZIZ UNIVERSITY, priority 2013, published 2015).

What was measured:
[1] = system: male lower urinary tract syndrome (LUTS); conditions: after 12 weeks of treatment
[2] = system: isolated human corpus cavernosum; conditions: at the recommended doses
[3] = administration by mouth (orally)

bioavailability [3]: approximately 40%
Compound: CCCc1nn(C)c2c(=O)[nH]c(-c3cc(S(=O)(=O)N4CCN(C)CC4)ccc3OCC)nc12 [Sildenafil, 1[4ethoxy3(6.7dihydro1methyl7oxo3propyl1Hpyrazolo [4,3d]pyrimidin5yl)phenylsulfonyl]4methylpiperazine]
International Prostate Symptom Score (IPSS) and LUTS-specific quality of life (QoL) score [1]: overall improvement
direct relaxant effect on the isolated human corpus cavernosum [2]: no direct relaxant effect
